This passage reports TGI results from PubChem BioAssay (NCI).

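Grown in 96-well plates, cells were treated for 48 hours with each compound at five concentrations. Insufficient inhibition: endpoint recorded as highest concentration tested. TGI is the concentration that stops growth completely.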

Some test systems named below: A549 NSCLC; ACHN renal; CCRF-CEM leukemia; EKVX NSCLC; HCC-2998 colon; HCT-116 colon; HCT-15 colon; HOP-62 NSCLC; M14 melanoma; MALME-3M melanoma; MOLT-4 leukemia; OVCAR-5 ovarian; SK-MEL-28 melanoma; SN12C renal; SNB-19 CNS; UO-31 renal; A498 renal; HS 578T breast; MCF7 breast; MDA-N.
What all share (test): NCI-60 cell line screen, 48 h

In the case of `COc1ccc2c(c1)c1cc(OC)ccc1n2CCCCOc1ccc(-c2c3ccccc3c(-c3ccc(OCCCCn4c5ccc(OC)cc5c5cc(OC)ccc54)cc3)c3ccccc23)cc1`, the TGI in the assay on A549 NSCLC, with ACHN renal, with CCRF-CEM leukemia, in the assay with EKVX NSCLC, in the assay with HCC-2998 colon and with HCT-116 colon was greater than 100 µM each time. The TGI with HCT-15 colon, in the assay on HOP-62 NSCLC, with M14 melanoma, with MALME-3M melanoma, in the assay on MOLT-4 leukemia and in the assay on OVCAR-5 ovarian was greater than 100 µM each time. Further, the TGI in the assay with SK-MEL-28 melanoma, in the assay with SN12C renal, with SNB-19 CNS and in the assay on UO-31 renal was greater than 100 µM each time.

Consider `COc1ccc(NC2=NCCO2)c2ccccc12`, for which the TGI with A498 renal, with A549 NSCLC, in the assay on ACHN renal, in the assay on CCRF-CEM leukemia, in the assay on EKVX NSCLC and in the assay with HCC-2998 colon was greater than 10 µM throughout. Besides, the TGI with HCT-116 colon, in the assay with HCT-15 colon, in the assay with HOP-62 NSCLC, in the assay with HS 578T breast, with M14 melanoma and in the assay on MALME-3M melanoma was greater than 10 µM in each case. Moreover, the TGI in the assay on MCF7 breast, with MDA-N, in the assay on MOLT-4 leukemia, in the assay on OVCAR-5 ovarian, in the assay on SK-MEL-28 melanoma and with SN12C renal was greater than 10 µM each time. In addition, the TGI in the assay with SNB-19 CNS and in the assay with UO-31 renal was greater than 10 µM in each case.

As for `N#Cc1c(C#N)c(SSc2c(C#N)c(C#N)c(N)n2-c2ccccc2)n(-c2ccccc2)c1N`, the TGI with A498 renal was 44.1 µM; in the assay on A549 NSCLC, greater than 57.2 µM; in the assay with ACHN renal, 21.4 µM; in the assay on EKVX NSCLC, 59.5 µM; with HCC-2998 colon it was 51 µM; with HCT-15 colon, greater than 24.4 µM. The TGI in the assay with HOP-62 NSCLC is greater than 69.1 µM; in the assay on HS 578T breast, 55.2 µM; with MALME-3M melanoma it was 3.26 µM; with MCF7 breast, 5.84 µM; in the assay on MDA-N, greater than 56.7 µM; in the assay on MOLT-4 leukemia, greater than 100 µM. For the same compound, the TGI in the assay on OVCAR-5 ovarian was greater than 62.5 µM; in the assay with SK-MEL-28 melanoma it was 40.9 µM; in the assay with SN12C renal, 38.3 µM; with SNB-19 CNS, greater than 63.1 µM; with UO-31 renal it was 3.08 µM.

Regarding `O/N=C\c1cc(O)c(O)c(/C=N/O)c1`, the TGI in the assay on A498 renal is greater than 100 µM; in the assay on A549 NSCLC it was greater than 100 µM; in the assay with ACHN renal it was 80.3 µM; in the assay with CCRF-CEM leukemia it was greater than 100 µM; in the assay on EKVX NSCLC, greater than 100 µM; in the assay on HCT-116 colon it was greater than 100 µM. The TGI in the assay with HCT-15 colon, in the assay with HOP-62 NSCLC, in the assay on HS 578T breast, in the assay on M14 melanoma, with MALME-3M melanoma and in the assay on MCF7 breast was greater than 100 µM throughout. Besides, the TGI in the assay on MDA-N, in the assay with MOLT-4 leukemia, in the assay with OVCAR-5 ovarian, in the assay on SK-MEL-28 melanoma, with SN12C renal and in the assay with SNB-19 CNS was greater than 100 µM in each case. The TGI with UO-31 renal was greater than 100 µM.
